Values after ≈ are worked out from the molar mass of the structure shown. Active and inactive are the calls of the source. The rule behind the calls is not given here.
Experiments:
Ralstonia solanacearum [1] = test: Antibacterial activity against Ralstonia solanacearum after 12 to 14 hrs; assay type: functional
Staphylococcus aureus [2] = test: Antibacterial activity against methicillin-resistant Staphylococcus aureus after 12 to 14 hrs; assay type: functional
Bacillus subtilis = test: Antibacterial activity against Bacillus subtilis after 12 to 14 hrs; assay type: functional
Bacillus cereus = test: Antibacterial activity against Bacillus cereus after 12 to 14 hrs; assay type: functional
Staphylococcus aureus [3] = test: Antibacterial activity against Staphylococcus aureus after 12 to 14 hrs; assay type: functional
[4] = Selectivity index, ratio of IC50 for human L02 cells to MIC for Ralstonia solanacearum; assay type: toxicity; details: read-out: Selectivity Index
Staphylococcus aureus [5] = test: Potency index, ratio of cefotaxime sodium MIC to test compound MIC for methicillin-resistant Staphylococcus aureus; assay type: functional
[6] = Selectivity index, ratio of IC50 for human SGC7901 cells to MIC for Ralstonia solanacearum; assay type: toxicity; details: read-out: Selectivity Index
Radish = test: Allelopathic activity against Raphanus sativus assessed as germination rate at 4 ug/ml after 48 hrs (reference value: 92 +/- 0.47%); assay type: organism-based; details: in vivo
[7] = Cytotoxicity against human HeLa cells assessed as cell viability at 4 ug/ml after 48 hrs by MTT assay relative to control; assay type: cell-based; details: read-out: Activity
Staphylococcus aureus [8] = test: Induction of membrane damage in Staphylococcus aureus at 1 ug/ml after 1 hr by Hoechst/propidium iodide staining-based fluorescence microscopic method; assay type: functional, organism-based
[9] = Cytotoxicity against human L02 cells assessed as cell viability at 4 ug/ml after 48 hrs by MTT assay relative to control; assay type: cell-based; details: read-out: Activity
SGC-7901 = test: Cytotoxicity against human SGC7901 cells assessed as decrease in cell viability after 48 hrs by MTT assay; assay type: cell-based; details: SGC-7901, 48 h
A549 = test: Cytotoxicity against human A549 cells assessed as decrease in cell viability after 48 hrs by MTT assay; assay type: cell-based; details: A549, 48 h
Triticum aestivum = test: Allelopathic activity against Triticum aestivum assessed as germination rate at 4 ug/ml after 48 hrs (reference value: 91 +/- 0.42%); assay type: organism-based; details: in vivo
[10] = Cytotoxicity against human SGC7901 cells assessed as cell viability at 4 ug/ml after 48 hrs by MTT assay relative to control; assay type: cell-based, SGC-7901; details: read-out: Activity
[11] = Selectivity index, ratio of IC50 for human SGC7901 cells to MIC for Bacillus cereus; assay type: toxicity; details: read-out: Selectivity Index
Staphylococcus aureus [12] = test: Potency index, ratio of fosfomycin sodium MIC to test compound MIC for methicillin-resistant Staphylococcus aureus; assay type: functional
L02 = test: Cytotoxicity against human L02 cells assessed as decrease in cell viability after 48 hrs by MTT assay; assay type: cell-based; details: L02, 48 h
Staphylococcus aureus [13] = test: Induction of morphological changes in Staphylococcus aureus assessed as cell shrinkage at 1 ug/ml after 1 hr by SEM analysis; assay type: functional, organism-based
[14] = Selectivity index, ratio of IC50 for human A549 cells to MIC for Bacillus cereus; assay type: toxicity; details: read-out: Selectivity Index
[15] = Selectivity index, ratio of IC50 for human L02 cells to MIC for Bacillus cereus; assay type: toxicity; details: read-out: Selectivity Index
Ralstonia solanacearum [16] = test: Protection against Ralstonia solanacearum-induced infection in eggplant leaf at 4 ug/ml after 3 days relative to control; assay type: functional
[17] = Selectivity index, ratio of IC50 for human A549 cells to MIC for Ralstonia solanacearum; assay type: toxicity; details: read-out: Selectivity Index
[18] = Selectivity index, ratio of IC50 for human HeLa cells to MIC for Ralstonia solanacearum; assay type: toxicity; details: read-out: Selectivity Index
HeLa = test: Cytotoxicity against human HeLa cells assessed as decrease in cell viability after 48 hrs by MTT assay; assay type: cell-based
[19] = Selectivity index, ratio of IC50 for human HeLa cells to MIC for Bacillus cereus; assay type: toxicity; details: read-out: Selectivity Index
[20] = Cytotoxicity against human A549 cells assessed as cell viability at 4 ug/ml after 48 hrs by MTT assay relative to control; assay type: cell-based; details: read-out: Activity
Staphylococcus aureus [21] = test: Induction of membrane permeabilization in Staphylococcus aureus at MIC by beta-galactosidase leakage assay; assay type: functional, organism-based
Ralstonia solanacearum [22] = test: Potency index, ratio of propineb MIC to test compound MIC for Ralstonia solanacearum; assay type: functional

O=C1CCC(=O)n2c1cc1ccccc12
MIC (Ralstonia solanacearum [1]): 8 µg/mL (≈ 40.2 µM)
MIC (Staphylococcus aureus [2]): 4 µg/mL (≈ 20.1 µM)
MIC (Bacillus subtilis): 4 µg/mL (≈ 20.1 µM)
MIC (Bacillus cereus): 16 µg/mL (≈ 80.3 µM)
MIC (Staphylococcus aureus [3]): 8 µg/mL (≈ 40.2 µM)

O=C1CCC2(SCCS2)c2cc3ccccc3n21
MIC (Ralstonia solanacearum [1]): > 64 µg/mL
MIC (Staphylococcus aureus [2]): > 64 µg/mL
MIC (Bacillus subtilis): > 64 µg/mL
MIC (Bacillus cereus): > 64 µg/mL
MIC (Staphylococcus aureus [3]): 32 µg/mL (≈ 116 µM)

COc1ccc2c(c1)c1c3n2C(=O)CCC3N(Cc2ccccc2)CC1 (centres undefined)
MIC (Ralstonia solanacearum [1]): > 64 µg/mL
MIC (Staphylococcus aureus [2]): 64 µg/mL (≈ 185 µM)
MIC (Bacillus subtilis): > 64 µg/mL
MIC (Bacillus cereus): > 64 µg/mL
MIC (Staphylococcus aureus [3]): 64 µg/mL (≈ 185 µM)

O=C1C=CC(=O)n2c1cc1ccccc12
selectivity ratio [4]: 4
Ratio (Staphylococcus aureus [5]): 8
selectivity ratio [6]: 4
Activity (Radish): 100%
viability at 48 h, 4 ug/ml [7]: 91%
Activity (Staphylococcus aureus [8]): Active
viability at 48 h, 4 ug/ml [9]: 89%
IC50 (SGC-7901): 88.6 µM
MIC (Ralstonia solanacearum [1]): 4 µg/mL (≈ 20.3 µM)
IC50 (A549): 97.1 µM
MIC (Staphylococcus aureus [2]): 2 µg/mL (≈ 10.1 µM)
MIC (Bacillus subtilis): 2 µg/mL (≈ 10.1 µM)
Activity (Triticum aestivum): 97%
viability at 48 h, 4 ug/ml [10]: 96%
MIC (Bacillus cereus): 4 µg/mL (≈ 20.3 µM)
selectivity ratio [11]: 4.9
Ratio (Staphylococcus aureus [12]): 4
IC50 (L02): 79.5 µM
Activity (Staphylococcus aureus [13]): Active
MIC (Staphylococcus aureus [3]): 2 µg/mL (≈ 10.1 µM)
selectivity ratio [14]: 4.1
selectivity ratio [15]: 4.9
Efficacy (Ralstonia solanacearum [16]): 68%
selectivity ratio [17]: 4.4
selectivity ratio [18]: 4.4
IC50 (HeLa): 82.4 µM
selectivity ratio [19]: 4.1
viability at 48 h, 4 ug/ml [20]: 103%
Activity (Staphylococcus aureus [21]): Active

O=c1ccc2nccc3c4cc(OCc5cn(Cc6ccccc6)nn5)ccc4n1c23
MIC (Bacillus subtilis): > 64 µg/mL
MIC (Bacillus cereus): > 64 µg/mL

COc1ccc2c(c1)c1cc[n+]([O-])c3ccc(=O)n2c13
MIC (Ralstonia solanacearum [1]): > 64 µg/mL
MIC (Bacillus subtilis): > 64 µg/mL
MIC (Bacillus cereus): > 64 µg/mL
MIC (Staphylococcus aureus [3]): > 64 µg/mL

CO/N=C(\C(=O)N[C@@H]1C(=O)N2C(C(=O)[O-])=C(COC(C)=O)CS[C@H]12)c1csc(N)n1.[Na+] [CEFOTAXIME SODIUM]
MIC (Ralstonia solanacearum [1]): 2 µg/mL
MIC (Staphylococcus aureus [2]): 16 µg/mL
MIC (Bacillus subtilis): 2 µg/mL
MIC (Bacillus cereus): 16 µg/mL
MIC (Staphylococcus aureus [3]): 1 µg/mL

C[C@@H]1O[C@@H]1P(=O)([O-])[O-].[Na+].[Na+] [PHOSPHOMYCIN DISODIUM]
MIC (Ralstonia solanacearum [1]): 8 µg/mL
MIC (Staphylococcus aureus [2]): 8 µg/mL
MIC (Bacillus subtilis): 2 µg/mL
MIC (Bacillus cereus): 4 µg/mL
MIC (Staphylococcus aureus [3]): 16 µg/mL

O=C1CCC(O)c2cc3ccccc3n21 (centres undefined)
MIC (Ralstonia solanacearum [1]): 32 µg/mL (≈ 159 µM)
MIC (Staphylococcus aureus [2]): 32 µg/mL (≈ 159 µM)
MIC (Bacillus subtilis): 16 µg/mL (≈ 79.5 µM)
MIC (Bacillus cereus): 16 µg/mL (≈ 79.5 µM)
MIC (Staphylococcus aureus [3]): 8 µg/mL (≈ 39.8 µM)

CCc1cc2nccc3c4cc(OC)ccc4n(c1=O)c23
MIC (Ralstonia solanacearum [1]): > 64 µg/mL
MIC (Bacillus subtilis): > 64 µg/mL
MIC (Bacillus cereus): > 64 µg/mL
MIC (Staphylococcus aureus [3]): > 64 µg/mL

c1ccc2c(c1)[nH]c1cnccc12 [NORHARMANE]
MIC (Ralstonia solanacearum [1]): > 64 µg/mL
MIC (Staphylococcus aureus [2]): > 64 µg/mL
MIC (Bacillus subtilis): > 64 µg/mL
MIC (Bacillus cereus): > 64 µg/mL
MIC (Staphylococcus aureus [3]): > 64 µg/mL

COc1ccc2c(c1)c1ccnc3ccc(=O)n2c31
MIC (Ralstonia solanacearum [1]): 16 µg/mL (≈ 63.9 µM)
MIC (Staphylococcus aureus [2]): 64 µg/mL (≈ 256 µM)
MIC (Bacillus subtilis): 8 µg/mL (≈ 32 µM)
MIC (Bacillus cereus): 4 µg/mL (≈ 16 µM)
MIC (Staphylococcus aureus [3]): > 64 µg/mL

COc1ccc2[nH]c3c(C(OC)OC)nccc3c2c1
MIC (Ralstonia solanacearum [1]): > 64 µg/mL
MIC (Bacillus subtilis): > 64 µg/mL
MIC (Bacillus cereus): > 64 µg/mL
MIC (Staphylococcus aureus [3]): > 64 µg/mL

COc1ccc2c(c1)c1ccnc3c1n2CCC3
MIC (Ralstonia solanacearum [1]): 4 µg/mL (≈ 16.8 µM)
MIC (Staphylococcus aureus [2]): 32 µg/mL (≈ 134 µM)
Ratio (Ralstonia solanacearum [22]): 2
MIC (Bacillus subtilis): > 64 µg/mL
MIC (Bacillus cereus): 32 µg/mL (≈ 134 µM)
MIC (Staphylococcus aureus [3]): > 64 µg/mL

O=C1CCC(=O)n2ccc3cccc1c32
MIC (Ralstonia solanacearum [1]): > 64 µg/mL
MIC (Bacillus subtilis): > 64 µg/mL
MIC (Bacillus cereus): > 64 µg/mL
MIC (Staphylococcus aureus [3]): > 64 µg/mL

COc1ccc2c(c1)c1ccnc3c1n2CN(Cc1ccccc1)C3
MIC (Ralstonia solanacearum [1]): > 64 µg/mL
MIC (Bacillus subtilis): 64 µg/mL (≈ 194 µM)
MIC (Bacillus cereus): 64 µg/mL (≈ 194 µM)
MIC (Staphylococcus aureus [3]): > 64 µg/mL

COc1ccc2c(c1)c1c3n2C(=O)CCC3NCC1 (centres undefined)
MIC (Ralstonia solanacearum [1]): > 64 µg/mL
MIC (Bacillus subtilis): > 64 µg/mL
MIC (Bacillus cereus): > 64 µg/mL
MIC (Staphylococcus aureus [3]): > 64 µg/mL

O=C1CCCc2cc3ccccc3n21
MIC (Ralstonia solanacearum [1]): > 64 µg/mL
MIC (Bacillus subtilis): > 64 µg/mL
MIC (Bacillus cereus): > 64 µg/mL
MIC (Staphylococcus aureus [3]): > 64 µg/mL

O=C1CCCC2Cc3ccccc3N12 (centres undefined)
MIC (Ralstonia solanacearum [1]): > 64 µg/mL
MIC (Bacillus subtilis): > 64 µg/mL
MIC (Bacillus cereus): > 64 µg/mL
MIC (Staphylococcus aureus [3]): > 64 µg/mL

COc1ccc2[nH]c3c(C=O)nccc3c2c1
MIC (Ralstonia solanacearum [1]): > 64 µg/mL
MIC (Bacillus subtilis): > 64 µg/mL
MIC (Bacillus cereus): 32 µg/mL (≈ 141 µM)
MIC (Staphylococcus aureus [3]): > 64 µg/mL

COc1ccc2[nH]c3cnccc3c2c1
MIC (Ralstonia solanacearum [1]): > 64 µg/mL
MIC (Staphylococcus aureus [2]): > 64 µg/mL
MIC (Bacillus subtilis): > 64 µg/mL
MIC (Bacillus cereus): > 64 µg/mL
MIC (Staphylococcus aureus [3]): > 64 µg/mL

C#CCOc1ccc2c(c1)c1ccnc3ccc(=O)n2c31
MIC (Ralstonia solanacearum [1]): 8 µg/mL (≈ 29.2 µM)
MIC (Staphylococcus aureus [2]): > 64 µg/mL
MIC (Bacillus subtilis): > 64 µg/mL
MIC (Bacillus cereus): 8 µg/mL (≈ 29.2 µM)
MIC (Staphylococcus aureus [3]): 64 µg/mL (≈ 233 µM)

O=c1ccc2nccc3c4cc(O)ccc4n1c23
MIC (Ralstonia solanacearum [1]): > 64 µg/mL
MIC (Bacillus subtilis): > 64 µg/mL
MIC (Bacillus cereus): 16 µg/mL (≈ 67.7 µM)
MIC (Staphylococcus aureus [3]): > 64 µg/mL

O=C(O)CNCP(=O)(O)O [GLYPHOSATE]
Activity (Radish): 78%
Activity (Triticum aestivum): 75%

Source: ChEMBL document CHEMBL4229520, “Design and synthesis of C10 modified and ring-truncated canthin-6-one analogues as effective membrane-active antibacterial agents” (Bioorg Med Chem Lett, 2018)
